Data set [1] has as its system angiogenesis in chorio-allantoic membrane (CAM) of the chicken embryo. Briefly: Inhibition of angiogenesis in chorio-allantoic membrane (CAM) of the chicken embryo in the incubated chicken egg. Format: in vivo. The following applies: for Degree of Inhibition I: number of CAM / Degree of Inhibition II: number of CAM / Degree of Inhibition III: number of CAM / Degree of Inhibition 0: number of CAM: n = 5 tested CAM, 2 days incubation; for Degree of Inhibition I: number of CAM: I-degree: avascular area 2 mm to 4 mm in diameter; for Degree of Inhibition II: number of CAM: II-degree: avascular area 4 mm to 6 mm in diameter; for Degree of Inhibition III: number of CAM: III-degree: avascular area greater than 6 mm in diameter; for Degree of Inhibition 0: number of CAM: zero-degree: avascular area less than 2 mm in diameter. The procedure: (§1) Fertilized chicken eggs were incubated for 4 days, and one hole was then bored by a gimlet at the top of the air chamber of the incubated eggs and another hole was bored at the lower lateral part of the egg. The white of egg (about 2 ml) was removed by suction at the lower hole of the egg. The air within the air chamber was sucked off through the hole bored at the top of the air chamber of the egg so that the eggshell membrane was released from the chorio-allantoic membrane (CAM) of the chicken embryo. The hole at the lower lateral part of the egg was then sealed. A part of the eggshell was then cut off from the top of the air chamber of the egg and a silicone ring having an inner diameter of 3 mm was placed directly on the chorio-allantoic membrane (having a diameter of 1 to 3 mm) in each egg, followed by pouring a solution (10 μl) containing a predetermined amount of actinonin and 1% methylcellulose in physiological saline into the silicone ring. The top of the air chamber of the egg was covered by a cap and the eggs were then further incubated for 2 days in an incubator. After this further incubation for 2 days, intralipid was injected into the CAM and the CAM so treated was photographed for estimation of the development of blood vessels.
Degree of inhibition to the angiogenesis was evaluated in term of the following four scales of zero degree to III-degree, according to the method of Crum et al (see Crum R., Szabo S., and Folkman J.; A new class of steroid inhibits angiogenesis in the presence of heparin or a heparin fragment in the "Science" 230, pp. 1375-1378 (1985)). Thus, the degree of inhibition to angiogenesis were estimated as follows:
Zero-degree . . . The avasuclar area where the blood vessels were not developed has a size of less than 2 mm in its diameter.
I-degree . . . The avascular area has a size of from 2 mm to 4 mm in its diameter.
II-degree . . . The avascular area has a size of from 4 mm to 6 mm in its diameter.
III-degree . . . The avascular area has a size of greater than 6 mm in its diameter.
In Table 1 below, there are shown the estimated degrees of the angiogenesis-inhibiting activity of actinonin at a dose of 10 to 100 μg per CAM.

Data set [2] deals with chorio-allantoic membrane. Briefly: Development/formation of chorio-allantoic membrane in the incubated chicken egg. It is filed as in vivo. The procedure: as §1
Another data set has as its system chicken embryo. Briefly: Growth of the chicken embryo, visually observed. It is filed as in vivo. Particulars: 500 μg to 10 μg per CAM. How it is done: as §1
In the next data set the test system is mice. The data set is described as follows: Acute toxicity tests in mice by intravenous injection. It is filed as in vivo. Particulars: 400 mg/kg.
Data set [3] relates to angiogenesis in chorio-allantoic membrane (CAM) of the chicken embryo. The data set is described as follows: Inhibition of angiogenesis in chorio-allantoic membrane (CAM) of the chicken embryo in the incubated chicken egg. Format: in vivo. Particulars: 500 μg to 10 μg per CAM.
The next data set concerns aminopeptidase M. Particulars: known from the literature; cited from earlier work.
For data set [4] the following is noted: Kokai No. 15840/86 and U.S. Pat. No. 4,663,342; cited from earlier work.
The conditions of data set [5]: Kokai No. 4228/87; cited from earlier work.
The conditions of data set [6]: I.A.M. Symposia on Microbiology, No. 6 and U.S. Pat. No. 3,240,787; cited from earlier work.

For `CCCCC[C@H](CC(=O)NO)C(=O)N[C@H](C(=O)N1CCC[C@H]1CO)C(C)C` [actinonin], in data set [1] (10 μg/CAM), the “Activity inhibitory to the angiogenesis in CAM” value is “shows a high activity inhibitory to the angiogenesis in CAM”, the “Degree of Inhibition I: number of CAM” value amounted to 2, the “Degree of Inhibition II: number of CAM” value turned out to be 1 and the “Degree of Inhibition III: number of CAM” value was determined as 1. In addition, the “Degree of Inhibition 0: number of CAM” value in data set [1] (10 μg/CAM) was found to be 1. Further, in data set [1] (50 μg/CAM), the “Degree of Inhibition I: number of CAM” value is recorded as 1, the “Degree of Inhibition II: number of CAM” value worked out at 2, the “Degree of Inhibition III: number of CAM” value was found to be 1 and the “Degree of Inhibition 0: number of CAM” value stood at 1. In addition, in [1] (100 μg/CAM), the “Degree of Inhibition I: number of CAM” value came out at 1, the “Degree of Inhibition II: number of CAM” value was 1, the “Degree of Inhibition III: number of CAM” value amounted to 1 and the “Degree of Inhibition 0: number of CAM” value came out at 2. In addition, in [1] (doses of 10 to 100 μg per CAM), the Angiogenesis-inhibiting activity entry is “shows an angiogenesis-inhibiting activity”. In [2] (500 μg to 10 μg per CAM, compared to untreated membranes), the “Inhibition to the development of chorio-allantoic membrane” value is recorded as “chorio-allantoic membranes of smaller dimensions as compared to those of the untreated membranes”. Besides, in data set [2] (conclusion from the CAM test), the “Inhibition of the formation of chorio-allantoic membrane” value is on record as “without inhibiting the formation of chorio-allantoic membrane”. The “Growth of the chicken embryo as a whole” value in the data set on chicken embryo was “it was not found that the growth of the chicken embryo as a whole can be inhibited”. Further, the “Deaths in acute toxicity tests” value in the data set on mice is on record as “no deaths”. In addition, the “Inhibition of angiogenesis in the chorio-allantoic membrane” value in data set [3] is listed as “can inhibit the angiogenesis”. In addition, in the data set on aminopeptidase M, the “Activity inhibitory to aminopeptidase M” value was “exhibits an activity inhibitory to aminopeptidase M”. Also, the Immunopotentiating effect result in data set [4] was “effective as an immunopotentiating agent”. The Analgesic effect entry in data set [5] was “effective as an analgesic agent”. In data set [6], the Antibacterial activity result is “antibacterially active”.

Values taken from patent publication US5134156A, “Pharmaceutical composition and method for angiogenesis inhibition” (Zaidan Hojin Biseibutsu Kagaku Kai, priority 1989, dated 1992).
